Assay results as given in ChEMBL document CHEMBL1926660, “4-Aminoethylpiperazinyl aryl ketones with 5-HT₁A/5-HT₇ selectivity” (Bioorg Med Chem, 2012).

What was measured:
[1] = target: T1, 5-hydroxytryptamine receptor 1A (Homo sapiens) (UniProt P08908); assay: Displacement of [3H]LSD from human 5-HT1A receptor expressed in CHO-K1 cells at 10 uM; assay type: cell-based
T1 sequence (whole entry): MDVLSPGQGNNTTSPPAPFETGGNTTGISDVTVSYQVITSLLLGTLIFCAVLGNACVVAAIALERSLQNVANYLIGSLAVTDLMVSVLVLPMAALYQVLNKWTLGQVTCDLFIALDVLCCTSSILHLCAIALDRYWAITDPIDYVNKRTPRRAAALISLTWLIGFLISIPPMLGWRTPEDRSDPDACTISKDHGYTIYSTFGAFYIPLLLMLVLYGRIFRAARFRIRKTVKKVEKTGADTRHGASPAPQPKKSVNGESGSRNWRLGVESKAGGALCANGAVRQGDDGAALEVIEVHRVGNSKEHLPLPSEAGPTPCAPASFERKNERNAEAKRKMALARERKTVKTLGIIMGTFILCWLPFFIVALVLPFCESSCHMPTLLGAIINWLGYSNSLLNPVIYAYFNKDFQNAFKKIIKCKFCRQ

[2] = target: 5-hydroxytryptamine receptor 7 (Homo sapiens) (UniProt P34969); assay: Displacement of […] from human 5-HT7 receptor expressed in HEK293 cells at 10 uM; assay type: cell-based
5-hydroxytryptamine receptor 7 (Homo sapiens), sequence (P34969 whole entry): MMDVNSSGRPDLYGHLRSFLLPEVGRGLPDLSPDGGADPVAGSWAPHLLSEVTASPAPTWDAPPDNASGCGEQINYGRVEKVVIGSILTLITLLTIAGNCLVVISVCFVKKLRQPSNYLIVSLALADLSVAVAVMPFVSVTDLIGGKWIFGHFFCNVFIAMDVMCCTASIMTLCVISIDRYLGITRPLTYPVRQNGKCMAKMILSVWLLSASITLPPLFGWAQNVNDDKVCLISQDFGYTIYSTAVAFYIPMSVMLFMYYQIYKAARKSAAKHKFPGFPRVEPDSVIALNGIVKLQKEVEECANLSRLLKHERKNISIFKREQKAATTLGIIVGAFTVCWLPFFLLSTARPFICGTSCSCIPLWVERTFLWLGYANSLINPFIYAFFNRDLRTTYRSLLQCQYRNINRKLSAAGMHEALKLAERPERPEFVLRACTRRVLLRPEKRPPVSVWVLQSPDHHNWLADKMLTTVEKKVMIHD

Compound: CC(C)c1cc(CNCCN2CCN(C(=O)c3cc(Cl)cc(Cl)c3)CC2)on1
- inhibition [1]: 43.2%
- inhibition [2]: -0.2%

Compound: O=C(c1cc(Cl)cc(Cl)c1)N1CCN(CCNCCCc2nc3ccccc3[nH]2)CC1
- inhibition [1]: 90.1%
- inhibition [2]: 62.7%

Compound: O=C(c1cc(C(F)(F)F)cc(C(F)(F)F)c1)N1CCN(CCNCCCc2nc3ccccc3[nH]2)CC1
- inhibition [1]: 87.7%
- inhibition [2]: 45.4%

Compound: CC(C)(C)CCNCCN1CCN(C(=O)c2ccc(Cl)cc2)CC1
- inhibition [1]: 36.7%
- inhibition [2]: -0.6%

Compound: CC(C)c1cc(CNCCN2CCN(C(=O)c3ccc(Cl)c(Cl)c3)CC2)on1
- inhibition [1]: 76.4%
- inhibition [2]: 16.1%

Compound: CC(C)(C)CCNCCN1CCN(C(=O)c2cc(C(F)(F)F)cc(C(F)(F)F)c2)CC1
- inhibition [1]: -4.4%
- inhibition [2]: -0.3%

Compound: CC(C)(C)CCNCCN1CCN(C(=O)c2ccc(Cl)c(Cl)c2)CC1
- inhibition [1]: 65.2%
- inhibition [2]: 2%

Compound: O=C(c1ccc(Cl)cc1)N1CCN(CCNCCCc2nc3ccccc3[nH]2)CC1
- inhibition [1]: 47.5%
- inhibition [2]: 36.8%

Compound: CC(C)c1cc(CNCCN2CCN(C(=O)c3cc(C(F)(F)F)cc(C(F)(F)F)c3)CC2)on1
- inhibition [1]: 13%
- inhibition [2]: -0.3%

Compound: O=C(c1ccc(Cl)c(Cl)c1)N1CCN(CCNCCCc2nc3ccccc3[nH]2)CC1
- inhibition [1]: 49.5%
- inhibition [2]: 56.2%

Compound: CC(C)(C)CCNCCN1CCN(C(=O)c2cc(Cl)cc(Cl)c2)CC1
- inhibition [1]: 33.7%
- inhibition [2]: -0.6%

Compound: CC(C)c1cc(CNCCN2CCN(C(=O)c3ccc(Cl)cc3)CC2)on1
- inhibition [1]: 56.5%
- inhibition [2]: 93.6%
